From US6300350A, “Treatment of emphysema using RARy selective retinoid agonists” (priority 2000, dated 2001)

Legend:
alveolar septation = details: postnatal administration; newborn rats; cited from earlier work
RXR receptors = details: cited from earlier work
RARγ [1] = target: T1, RARγ (Homo sapiens, UniProt P13631); experiment: Binding, RARγ (ligand binding assay)
T1 sequence (P13631 1-454): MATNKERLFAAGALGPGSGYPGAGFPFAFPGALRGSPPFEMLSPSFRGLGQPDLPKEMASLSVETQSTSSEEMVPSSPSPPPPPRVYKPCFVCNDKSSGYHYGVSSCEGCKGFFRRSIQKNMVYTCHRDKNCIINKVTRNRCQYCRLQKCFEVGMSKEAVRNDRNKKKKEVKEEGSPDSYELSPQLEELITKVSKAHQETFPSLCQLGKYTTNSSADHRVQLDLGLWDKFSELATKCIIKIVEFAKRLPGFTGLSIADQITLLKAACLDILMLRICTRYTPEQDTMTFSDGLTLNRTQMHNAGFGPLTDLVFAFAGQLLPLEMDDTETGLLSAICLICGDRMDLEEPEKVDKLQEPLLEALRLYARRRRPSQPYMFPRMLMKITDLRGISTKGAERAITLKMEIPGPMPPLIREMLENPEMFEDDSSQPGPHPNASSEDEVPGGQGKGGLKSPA
Text: (§1) The RARγ agonist selectivity of a compound can be determined by routine ligand binding assays known to one of skill in the art such as described in C. Apfel et al., Proc. Nat.

RARα [2] = target: T2, RARα (Homo sapiens, UniProt P10276); experiment: Binding, RARα (ligand binding assay)
T2 sequence (P10276 1-462): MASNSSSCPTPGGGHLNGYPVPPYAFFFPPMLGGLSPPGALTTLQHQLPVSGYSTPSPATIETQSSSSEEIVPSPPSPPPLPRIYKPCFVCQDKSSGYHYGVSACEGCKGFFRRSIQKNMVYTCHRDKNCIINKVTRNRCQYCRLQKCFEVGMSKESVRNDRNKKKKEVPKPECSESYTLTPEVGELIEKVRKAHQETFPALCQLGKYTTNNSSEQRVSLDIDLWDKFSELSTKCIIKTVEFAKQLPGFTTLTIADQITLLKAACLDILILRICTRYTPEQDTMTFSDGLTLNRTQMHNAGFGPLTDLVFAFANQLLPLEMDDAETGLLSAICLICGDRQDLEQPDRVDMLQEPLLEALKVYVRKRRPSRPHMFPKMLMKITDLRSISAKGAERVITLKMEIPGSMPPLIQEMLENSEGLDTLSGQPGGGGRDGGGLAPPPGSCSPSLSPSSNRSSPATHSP
Text: as §1

[3] = system: elastase-induced emphysema; experiment: Alveolar repair in rat model of elastase-induced emphysema, intraperitoneal; format: in vivo, male Sprague Dawley rats; parameters: Alveolar Area: unit not given here; details: for % Repair / Alveolar Area: 0.5 mg/kg ip once daily, from 21 days post injury, 14 days; for Alveolar Area: naive 1637 +/- 153, elastase + vehicle 3570 +/- 319; for alveolar repair (in words): elastase-treated rats, 0.5 mg/kg ip; for light micrographs of lung sections (in words): rat lung damaged by elastase and then treated, compared to normal rat lung
Method: Animals were divided into treatment groups of approximately eight. […] Three weeks post injury ATRA or a RAR selective agonist was dissolved in DMSO (20 mg/ml) and stored at -20 C. Fresh working stocks were prepared fresh daily by dilution in corn oil to a final concentration of 2 mg/ml. […] Control groups were challenged with elastase and 21 days later treated with Vehicle (DMSO/PBS) for 14 days. Animals were sacrificed 24 hours after the last dose of by exsanguination under deep anesthesia. Blood was collected at time of exanguination for analysis of changes in blood chemistry from respective treatments. The lungs were inflated with 10% neutral buffered formalin by intratracheal instillation at a constant rate (1 ml/gram body mass/min). The lung was excised and immersed in fixative for 24 hours prior to processing. Standard methods were used to prepare 5 um paraffin sections. Sections were stained with Hematoxylin and Eosin (H%E). Computerized Morphometric analysis was performed to determine the average alveolar size and alveolar number.

RARγ [4] = target: T1, RARγ; experiment: Transactivation, RARγ; format: cell-based
Text: (§2) As used herein, the term "transactivation" refers to the ability of a retinoid to activate the transcription of a gene where the gene transcription is initiated by the binding of a ligand to the particular retinoic acid receptor being tested, i.e., RARα, RARβ, or RARγ. Determining the ability of a compound to transactivate a retinoic acid receptor may be performed by methods known to those of skill in the art. […] Apfel etal., Proc. Nat.

RARβ [5] = target: T3, RARβ (Homo sapiens, UniProt P10826); experiment: Transactivation, RARβ; format: cell-based
T3 sequence (P10826 1-455): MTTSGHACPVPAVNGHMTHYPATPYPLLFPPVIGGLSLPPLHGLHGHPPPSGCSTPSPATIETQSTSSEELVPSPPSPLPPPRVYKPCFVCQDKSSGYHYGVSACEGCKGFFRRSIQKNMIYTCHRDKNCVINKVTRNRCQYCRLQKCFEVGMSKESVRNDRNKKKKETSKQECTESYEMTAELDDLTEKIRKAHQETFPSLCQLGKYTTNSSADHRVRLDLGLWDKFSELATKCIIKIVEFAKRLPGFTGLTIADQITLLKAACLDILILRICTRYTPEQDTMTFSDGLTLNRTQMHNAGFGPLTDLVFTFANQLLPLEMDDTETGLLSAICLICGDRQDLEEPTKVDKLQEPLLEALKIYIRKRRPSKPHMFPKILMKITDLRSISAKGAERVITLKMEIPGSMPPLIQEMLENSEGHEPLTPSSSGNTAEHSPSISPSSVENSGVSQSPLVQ
Text: as §2

RARβ [6] = target: T3, RARβ; experiment: Binding, RARβ (ligand binding assay)
Text: as §1

RARα [7] = target: T2, RARα; experiment: Transactivation, RARα; format: cell-based
Text: as §2

tropoelastin gene = experiment: RAR transactivation of steady state tropoelastin gene in normal human lung fibroblasts (CCD-16Lu); format: cell-based; details: for Tropo-elastin Expression: CCD-16Lu, 1×10^-7 M, RT-PCR, triplicate, untreated control 30.90; for tropoelastin gene induction (in words): human lung fibroblasts, compared to the control
Method: Transactivation of the tropoelastin gene in normal human lung fibroblasts (CCD-16Lu) was performed as described below. Cells were grown to confluence at which time fresh media +/- ATRA or selective retiniod was added to the basal culture. ATRA and/or selective retiniods were used at a concentration of 1×10^-7 M. The cell layer was lysed using a guanidinium-based buffer (TRIZOL/Sigma) for RNA extraction and analysis. Amplification of tropoelastin and GAPDH RNA was performed by standard quantitative RT-PCR (TAQMAN, Perken/Elmer) using appropriate selective primers. Tropo-elastin gene expression was normalized to the expression of standard house-keeping gene (GAPDH).
Samples were run in triplicate.

[8] = Plasma triglyceride levels in rats; format: in vivo
Method: Experimental emphysema was induced in rats as described in Example 2. Three (3) weeks post injury animals were treated with vehicle (Capmul solution) or retinoids prepared in Capmul and dosed orally at 1, 3, and 10 mg/kg body weight. Animals were treated for 14 days prior to termination of study. Lung harvest and blood collection was performed as described in Example 2.
Quantitation of triglycerides contained in rat plasma was performed after using established procedures in a contact clinical laboratory facility. Briefly, plasma triglycerides were converted to dihdroxyacetone and H2 O2, by sequential treatment of plasma with lipase and glycerokinase according directions described by manufacturer of triglycerides/GPO kit (Boehringer Mannheim #1488872). H2 02 was quantitated calorimetrically in a Hitachi 911 Chemistry Analyzer. In rats normal triglyceride levels are 75-175 mg/dl.
Dosage was at 1 mg/kg/PO daily for two weeks. […] Therefore, it appears that RARα selective activity is linked to elevated triglyceride levels.

experimental emphysema = experiment: Alveolar repair in rat experimental emphysema, oral dosing; format: in vivo, rats; details: 1 mg/kg/PO daily for two weeks
Method: Three (3) weeks post injury animals were treated with vehicle (Capmul solution) or retinoids prepared in Capmul and dosed orally at 1, 3, and 10 mg/kg body weight. Animals were treated for 14 days prior to termination of study.
Dosage was at 1 mg/kg/PO daily for two weeks.

[9] = plasma, 1 mg/kg/PO daily for two weeks
[10] = plasma, 1 mg/kg/PO daily for two weeks, normal rat 75-175 mg/dl

Row | SMILES | IC50 (RARγ [1]; Table III) | % Repair [3] | Alveolar Area [3] | alveolar repair (in words) [3] | EC50 (RARγ [4]; Table III) | triglyceride levels (in words) [8, 9] | [Triglyceride] [8, 10] | % Repair (experimental emphysema) | also measured
1 | CC1=C(/C=C/C(C)=C/C=C/C(C)=C/C(=O)O)C(C)(C)CCC1 [retinoic acid] |  |  |  |  |  |  |  |  | number of alveoli / septation in lungs (in words) (alveolar septation): increases the number of alveoli in rats
2 | CC1=C(/C=C/C(C)=C\C=C\C(C)=C\C(=O)O)C(C)(C)CCC1 [9-cis retinoic acid] |  |  |  |  |  |  |  |  | binding to RXR receptors (in words) (RXR receptors): is the natural ligand
3 | CC(C)COc1ccc(-c2ccc3cc(C(=O)O)ccc3c2)cc1C(C)(C)C [RAR Agonist 2, reference compound] | 300 nM | < 20% | 3653 +/- 550 | do not induce alveolar repair | 160 nM |  |  |  | IC50 (RARγ [1]; Table II): 300 nM; IC50 (RARα [2]; Table II): 1000 nM; light micrographs of lung sections (in words) [3]: did not reverse the change caused by elastase treatment; EC50 (RARγ [4]; Table II): 160 nM; EC50 (RARβ [5]; Table II): 39 nM; IC50 (RARβ [6]; Table II): 28 nM; EC50 (RARα [7]; Table II): 2000 nM; Tropo-elastin Expression (tropoelastin gene): 1.85 (Elastin/GAPDH) × 10^5; tropoelastin gene induction (in words) (tropoelastin gene): did not induce the tropoelastin gene
4 | CCCCCC(=O)c1cc2c(cc1/C=C/c1ccc(C(=O)O)cc1)C(C)(C)CCC2(C)C [RAR Agonist 5] | 770 nM | 56% | 2502 +/- 243 | markedly induce alveolar repair | 104 nM | do not cause elevation in the triglyceride levels | 119 mg/dL | 40% | IC50 (RARα [2]; Table III): 2300 nM; EC50 (RARβ [5]; Table III): 10000 nM; IC50 (RARβ [6]; Table III): 5400 nM; EC50 (RARα [7]; Table III): 10000 nM
5 | O=C(O)c1ccc(NC(=O)c2cc(C(F)(F)F)cc(C(F)(F)F)c2)cc1 [RAR Agonist 1, reference compound] | 10000 nM | < 20% | 3058 +/- 160 | do not induce alveolar repair | 10000 nM |  |  |  | IC50 (RARγ [1]; Table II): 10000 nM; IC50 (RARα [2]; Table II): 300 nM; light micrographs of lung sections (in words) [3]: did not reverse the change caused by elastase treatment; EC50 (RARγ [4]; Table II): 10000 nM; EC50 (RARβ [5]; Table II): 10000 nM; IC50 (RARβ [6]; Table II): 10000 nM; EC50 (RARα [7]; Table II): 16.5 nM; Tropo-elastin Expression (tropoelastin gene): 13.93 (Elastin/GAPDH) × 10^5; tropoelastin gene induction (in words) (tropoelastin gene): did not induce the tropoelastin gene
6 | CC1(C)CCOc2ccc(C(=O)/C=C/c3ccc(C(=O)O)cc3)cc21 [RAR Agonist 6] | 2410 nM | > 70% | 1909 +/- 207 | markedly induce alveolar repair | 15 nM | do not cause elevation in the triglyceride levels | 140 mg/dL | 39% | IC50 (RARα [2]; Table III): 3100 nM; EC50 (RARβ [5]; Table III): 16 nM; IC50 (RARβ [6]; Table III): 2100 nM; EC50 (RARα [7]; Table III): 10000 nM
7 | C[C@@H]1C[C@H]2[C@@H]3CCC4=CC(=O)C=C[C@]4(C)[C@@]3(F)[C@@H](O)C[C@]2(C)[C@@]1(O)C(=O)CO [dexamethasone] |  |  |  |  |  |  |  |  | number of alveoli / septation in lungs (in words) (alveolar septation): inhibits the process of septation in the lungs
8 | O=C(O)c1ccc2cc(-c3ccc(O)c(C45CC6CC(CC(C6)C4)C5)c3)ccc2c1 [RAR Agonist 7] |  | > 70% | 1817 +/- 241 | markedly induce alveolar repair |  |  |  | 66% | [Triglyceride] ([8]; rat, in vivo, po, 1 mg/kg): 114 mg/dL; triglyceride levels (in words) ([8]; rat, in vivo, po, 1 mg/kg): do not cause elevation in the triglyceride levels; EC50 (RARβ [5]; Table III): 2300 nM; IC50 (RARβ [6]; Table III): 4600 nM
9 | CC1=C(/C=C/C(C)=C/C=C/C(C)=C\C(=O)O)C(C)(C)CCC1 [RAR Agonist 8, reference compound] |  |  |  |  |  | either on the high end of normal or elevated | 178 mg/dL | 57.1% | 
10 | CC1=C(/C=C/C(C)=C\C=C\C(C)=C\C(=O)O)C(C)(C)CCC1 [RAR Agonist 10, reference compound] |  |  |  |  |  | either on the high end of normal or elevated | 273 mg/dL | 58.3% | 
11 | CC1(C)CCC(C)(C)c2cc(C(=O)Nc3ccc(C(=O)O)cc3)ccc21 [RAR Agonist 9] |  | < 20% | 3323 +/- 406 | do not induce alveolar repair |  |  |  |  | 
